Activity calls are given as the source filed them.
Assays:
H4 [1] = test: inhibitors of control reporter signal in H4 cells – cell-based, plate reader, dry powder samples, counter-screen for prion reporter project, dose response (AID 540255); format: functional; conditions: Homo sapiens
H4 [2] = test: Inhibitors of Prion Protein 5' UTR mRNA Measured in Cell-Based System Using Plate Reader - 2078-01_Inhibitor_Dose_DryPowder_Activity. [Related pubchem assays (depositor defined):AID488894]; format: functional; conditions: Homo sapiens
[3] = molecular target: Voltage-gated inwardly rectifying potassium channel KCNH2 (Homo sapiens, UniProt Q12809); conditions: Potency;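 also: confirmatory quantitative high-throughput screen measuring inhibition of hERG channel activity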
[4] = Fluorescence-based cell-based high throughput dose response assay for inhibitors of the interaction of nucleotide-binding oligomerization domain containing 2 (NOD2) and the receptor-interacting serine-threonine kinase 2 (RIPK2).; format: functional, Homo sapiens; conditions: Homo sapiens
[5] = Trypanosoma cruzi growth suppression in host cells – NIH3T3 host cells, beta-gal luminescence, confirmation (AID 2044); format: functional, cell-based;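 also: intracellular parasites grown in NIH/3T3 mouse fibroblasts as host cells; luminescent beta-galactosidase reporter signal from transgenic T. cruzi replicating inside host cells; inhibitors lower the luminescence signal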
Mucolipin-3 = Mucolipin-3 (Homo sapiens, UniProt Q8TDD5); test: Dose response cell-based high-throughput screening assay for agonists of the transient receptor potential channel ML3 (TRPML3). [Related pubchem assays: 1526, 1424, 1448 ]; format: functional
Ion channel NompC = Ion channel NompC (Danio rerio, UniProt Q7T1G6); test: Fluorescence counterscreen assay for TRPML3 agonists: dose response cell-based high-throughput screening assay to identify agonists of the transient receptor potential channel N1 (TRPN1). [Related pubchem assays: 1526, 1424, 1448 ]; format: functional
CHO = CHO cell viability loss, potency – luminescence, cytotoxicity control for TLR9-MyD88 binding inhibitor project, dose response (AID 588339); format: functional, cell-based, hamster; conditions: Cricetulus griseus;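 also: CHO cells stably coexpressing TLR9 and MyD88 fusions from primary screen; compound exposure lasted 48 hours before viability readout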
[6] = NIH3T3 cell viability loss – ATP luminescence, mouse fibroblasts, counter-screen, dose response (AID 2010); format: functional, cell-based;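 also: cells exposed to compound for about 90 hours before reading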
Paired box protein Pax-8 = Paired box protein Pax-8 (Homo sapiens, UniProt Q06710); test: PAX8 transcriptional activity inhibition in RMG-I – RMG-I cells, luciferase, cherry-pick, dose response (AID 687027); format: functional, cell-based;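 also: luciferase reporter driven by Pax8 target thyroperoxidase promoter measured by SteadyGlo luminescence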
Chain of Paired box protein Pax-8 (Q06710 whole entry): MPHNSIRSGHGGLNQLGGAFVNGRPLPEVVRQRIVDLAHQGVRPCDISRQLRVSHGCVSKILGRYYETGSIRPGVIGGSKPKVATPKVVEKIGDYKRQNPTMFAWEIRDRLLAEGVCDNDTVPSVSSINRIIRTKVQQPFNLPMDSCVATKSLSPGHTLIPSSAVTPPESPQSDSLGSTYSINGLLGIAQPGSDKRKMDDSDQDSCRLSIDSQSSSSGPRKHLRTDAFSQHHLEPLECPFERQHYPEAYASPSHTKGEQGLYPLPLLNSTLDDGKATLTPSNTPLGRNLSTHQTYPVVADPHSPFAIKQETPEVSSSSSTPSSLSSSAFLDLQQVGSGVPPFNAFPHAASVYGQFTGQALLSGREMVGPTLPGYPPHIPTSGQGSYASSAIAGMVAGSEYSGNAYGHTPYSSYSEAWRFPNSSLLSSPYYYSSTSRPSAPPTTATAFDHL

[7] = molecular target: Induced myeloid leukemia cell differentiation protein Mcl-1 (Homo sapiens, UniProt Q07820); format: functional
Chain of Induced myeloid leukemia cell differentiation protein Mcl-1 (Q07820 whole entry): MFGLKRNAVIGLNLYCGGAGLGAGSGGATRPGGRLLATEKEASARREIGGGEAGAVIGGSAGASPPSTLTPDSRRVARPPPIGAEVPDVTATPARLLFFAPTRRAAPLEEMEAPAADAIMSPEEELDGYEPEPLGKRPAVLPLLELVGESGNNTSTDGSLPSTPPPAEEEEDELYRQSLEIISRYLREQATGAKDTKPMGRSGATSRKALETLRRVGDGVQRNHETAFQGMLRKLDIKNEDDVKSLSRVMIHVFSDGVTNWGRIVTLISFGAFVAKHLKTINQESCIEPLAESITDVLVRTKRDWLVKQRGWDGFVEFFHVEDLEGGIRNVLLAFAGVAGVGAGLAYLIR

SUMO-activating enzyme [8] = molecular target: T1, SUMO-activating enzyme (Homo sapiens, UniProt Q9UBT2); test: blockers of UBC9-mediated SUMO conjugation – biochemical, AlphaScreen, SUMOylation inhibitor project, confirmation (AID 2018); format: functional
T1 sequence (Q9UBE0 whole entry): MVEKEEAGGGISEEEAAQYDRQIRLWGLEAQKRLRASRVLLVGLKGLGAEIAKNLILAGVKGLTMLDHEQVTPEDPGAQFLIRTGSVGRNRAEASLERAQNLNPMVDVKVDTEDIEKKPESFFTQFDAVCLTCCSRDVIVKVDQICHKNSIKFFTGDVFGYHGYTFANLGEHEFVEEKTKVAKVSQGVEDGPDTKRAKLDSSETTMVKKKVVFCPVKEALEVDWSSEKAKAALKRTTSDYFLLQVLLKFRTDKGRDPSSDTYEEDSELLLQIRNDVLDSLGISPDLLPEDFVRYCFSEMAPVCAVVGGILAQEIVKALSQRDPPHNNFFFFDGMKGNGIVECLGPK
T1 sequence (Q9UBT2 whole entry): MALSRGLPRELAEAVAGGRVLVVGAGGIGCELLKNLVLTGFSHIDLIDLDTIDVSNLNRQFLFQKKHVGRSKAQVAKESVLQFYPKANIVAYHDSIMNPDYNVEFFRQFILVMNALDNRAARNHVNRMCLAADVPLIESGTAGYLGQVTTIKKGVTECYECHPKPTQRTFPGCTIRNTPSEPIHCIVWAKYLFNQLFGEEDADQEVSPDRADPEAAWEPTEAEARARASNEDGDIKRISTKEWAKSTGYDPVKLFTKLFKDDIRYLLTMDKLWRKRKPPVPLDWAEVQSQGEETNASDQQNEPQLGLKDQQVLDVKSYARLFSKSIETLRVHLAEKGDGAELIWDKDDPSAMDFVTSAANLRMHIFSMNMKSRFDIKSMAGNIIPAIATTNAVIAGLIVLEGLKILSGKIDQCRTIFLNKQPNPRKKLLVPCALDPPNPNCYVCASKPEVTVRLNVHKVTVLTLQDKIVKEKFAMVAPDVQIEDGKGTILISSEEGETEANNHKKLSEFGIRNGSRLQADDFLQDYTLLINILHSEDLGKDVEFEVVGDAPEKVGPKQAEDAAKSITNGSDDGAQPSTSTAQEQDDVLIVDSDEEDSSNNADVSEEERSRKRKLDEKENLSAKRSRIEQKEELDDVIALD

[9] = molecular target: Ras and Rab interactor 1/Tyrosine-protein kinase ABL1 (Homo sapiens, UniProt P00519+Q13671); format: functional;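 also: biochemical TR-FRET dose-response test measuring inhibition of binding between Rin1 and Abl proteins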
Chain of Ras and Rab interactor 1/Tyrosine-protein kinase ABL1 (P00519 whole entry): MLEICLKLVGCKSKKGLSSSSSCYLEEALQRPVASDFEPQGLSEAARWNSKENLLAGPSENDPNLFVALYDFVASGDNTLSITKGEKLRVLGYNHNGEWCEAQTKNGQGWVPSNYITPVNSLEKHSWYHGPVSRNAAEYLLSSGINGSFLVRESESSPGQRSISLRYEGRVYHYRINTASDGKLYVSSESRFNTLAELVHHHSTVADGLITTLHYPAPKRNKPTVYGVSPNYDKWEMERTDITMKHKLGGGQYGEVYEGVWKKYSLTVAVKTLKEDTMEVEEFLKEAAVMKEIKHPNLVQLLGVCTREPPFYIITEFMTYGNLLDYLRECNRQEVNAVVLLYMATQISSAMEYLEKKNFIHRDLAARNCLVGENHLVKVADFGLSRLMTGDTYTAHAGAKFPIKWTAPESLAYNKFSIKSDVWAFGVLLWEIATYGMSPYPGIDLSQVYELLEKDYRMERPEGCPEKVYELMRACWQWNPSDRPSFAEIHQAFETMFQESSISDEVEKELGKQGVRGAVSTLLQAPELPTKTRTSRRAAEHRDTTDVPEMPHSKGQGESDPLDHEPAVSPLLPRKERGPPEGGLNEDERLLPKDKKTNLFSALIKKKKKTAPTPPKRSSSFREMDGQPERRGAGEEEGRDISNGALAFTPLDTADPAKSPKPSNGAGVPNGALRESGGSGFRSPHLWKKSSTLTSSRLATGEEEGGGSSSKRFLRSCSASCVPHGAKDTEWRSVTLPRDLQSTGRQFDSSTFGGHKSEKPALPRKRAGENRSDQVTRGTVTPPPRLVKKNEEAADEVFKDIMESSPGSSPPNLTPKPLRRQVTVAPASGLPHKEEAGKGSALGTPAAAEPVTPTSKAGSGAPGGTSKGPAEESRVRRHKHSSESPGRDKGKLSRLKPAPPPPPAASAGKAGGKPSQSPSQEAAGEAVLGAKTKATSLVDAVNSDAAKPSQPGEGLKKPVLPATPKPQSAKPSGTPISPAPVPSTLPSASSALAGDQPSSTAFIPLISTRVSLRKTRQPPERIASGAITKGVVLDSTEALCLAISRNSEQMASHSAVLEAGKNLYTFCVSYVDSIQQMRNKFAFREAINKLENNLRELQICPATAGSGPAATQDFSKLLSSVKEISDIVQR
Chain of Ras and Rab interactor 1/Tyrosine-protein kinase ABL1 (Q13671 whole entry): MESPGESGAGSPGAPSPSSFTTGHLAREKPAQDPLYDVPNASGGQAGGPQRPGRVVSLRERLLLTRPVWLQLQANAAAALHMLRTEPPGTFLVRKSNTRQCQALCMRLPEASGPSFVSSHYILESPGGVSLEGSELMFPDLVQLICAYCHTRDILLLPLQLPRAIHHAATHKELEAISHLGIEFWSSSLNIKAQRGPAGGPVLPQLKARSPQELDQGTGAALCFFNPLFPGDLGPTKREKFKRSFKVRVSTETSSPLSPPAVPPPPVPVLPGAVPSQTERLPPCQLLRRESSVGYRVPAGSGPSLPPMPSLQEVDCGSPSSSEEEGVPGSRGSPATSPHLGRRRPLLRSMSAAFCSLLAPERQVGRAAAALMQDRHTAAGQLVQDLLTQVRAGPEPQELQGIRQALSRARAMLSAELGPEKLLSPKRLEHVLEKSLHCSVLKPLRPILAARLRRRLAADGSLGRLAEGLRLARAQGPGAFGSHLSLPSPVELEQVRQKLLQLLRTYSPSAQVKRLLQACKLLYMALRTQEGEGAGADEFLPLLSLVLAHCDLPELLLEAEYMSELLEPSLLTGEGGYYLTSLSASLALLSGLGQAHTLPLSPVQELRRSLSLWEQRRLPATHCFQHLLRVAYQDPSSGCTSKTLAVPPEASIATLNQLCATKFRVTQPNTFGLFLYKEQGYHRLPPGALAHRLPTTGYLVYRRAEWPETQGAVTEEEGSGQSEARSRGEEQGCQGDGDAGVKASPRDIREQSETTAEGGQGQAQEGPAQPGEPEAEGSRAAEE

[10] = molecular target: Dual specificity tyrosine-phosphorylation-regulated kinase 1A (Rattus norvegicus, UniProt Q63470); format: biochemical, Homo sapiens
[11] = molecular target: Cyclin-dependent kinase 5/CDK5 activator 1 (Homo sapiens, UniProt Q00535); test: blockade of human CDK5 activity – biochemical, cherry-picked samples, set 2, dose response (AID 504545)
SUMO-activating enzyme [12] = molecular target: T1, SUMO-activating enzyme; test: blockers of SAE1/SAE2–UBC9 SUMO transfer – biochemical, HTRF, uHTS, primary screen (AID 2006); format: protein-complex assay
Large T antigen = Large T antigen (Simian virus 40, UniProt P03070); format: functional, Betapolyomavirus macacae;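 also: Confirmatory-stage PubChem screen for compounds that inhibit SV40 T antigen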
Chain of Large T antigen (P03070 whole entry): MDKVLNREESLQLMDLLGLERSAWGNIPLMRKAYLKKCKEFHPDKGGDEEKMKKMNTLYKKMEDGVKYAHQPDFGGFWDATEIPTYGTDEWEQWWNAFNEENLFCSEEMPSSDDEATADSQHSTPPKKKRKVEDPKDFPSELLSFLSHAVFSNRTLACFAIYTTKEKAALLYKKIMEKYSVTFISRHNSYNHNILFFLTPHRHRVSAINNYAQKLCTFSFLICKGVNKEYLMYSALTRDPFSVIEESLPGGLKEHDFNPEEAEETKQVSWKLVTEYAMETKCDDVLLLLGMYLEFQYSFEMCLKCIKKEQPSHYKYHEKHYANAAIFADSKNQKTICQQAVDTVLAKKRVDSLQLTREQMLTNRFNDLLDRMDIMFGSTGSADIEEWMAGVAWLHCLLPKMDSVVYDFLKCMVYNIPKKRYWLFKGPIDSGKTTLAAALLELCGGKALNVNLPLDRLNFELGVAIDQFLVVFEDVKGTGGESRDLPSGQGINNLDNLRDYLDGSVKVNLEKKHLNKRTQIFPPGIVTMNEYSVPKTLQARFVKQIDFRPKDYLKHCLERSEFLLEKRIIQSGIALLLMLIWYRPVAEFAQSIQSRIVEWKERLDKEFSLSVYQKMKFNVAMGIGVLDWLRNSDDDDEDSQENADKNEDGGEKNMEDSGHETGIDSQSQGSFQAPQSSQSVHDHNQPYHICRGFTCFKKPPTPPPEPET

[13] = molecular target: T2, Replicative DNA helicase DnaB (Mycobacterium tuberculosis, UniProt P9WMR3); test: DnaB intein splicing inhibitors, dose response, biochemical, cell-free fluorescence (AID 449749); format: functional
T2 sequence (P9WMR3 whole entry): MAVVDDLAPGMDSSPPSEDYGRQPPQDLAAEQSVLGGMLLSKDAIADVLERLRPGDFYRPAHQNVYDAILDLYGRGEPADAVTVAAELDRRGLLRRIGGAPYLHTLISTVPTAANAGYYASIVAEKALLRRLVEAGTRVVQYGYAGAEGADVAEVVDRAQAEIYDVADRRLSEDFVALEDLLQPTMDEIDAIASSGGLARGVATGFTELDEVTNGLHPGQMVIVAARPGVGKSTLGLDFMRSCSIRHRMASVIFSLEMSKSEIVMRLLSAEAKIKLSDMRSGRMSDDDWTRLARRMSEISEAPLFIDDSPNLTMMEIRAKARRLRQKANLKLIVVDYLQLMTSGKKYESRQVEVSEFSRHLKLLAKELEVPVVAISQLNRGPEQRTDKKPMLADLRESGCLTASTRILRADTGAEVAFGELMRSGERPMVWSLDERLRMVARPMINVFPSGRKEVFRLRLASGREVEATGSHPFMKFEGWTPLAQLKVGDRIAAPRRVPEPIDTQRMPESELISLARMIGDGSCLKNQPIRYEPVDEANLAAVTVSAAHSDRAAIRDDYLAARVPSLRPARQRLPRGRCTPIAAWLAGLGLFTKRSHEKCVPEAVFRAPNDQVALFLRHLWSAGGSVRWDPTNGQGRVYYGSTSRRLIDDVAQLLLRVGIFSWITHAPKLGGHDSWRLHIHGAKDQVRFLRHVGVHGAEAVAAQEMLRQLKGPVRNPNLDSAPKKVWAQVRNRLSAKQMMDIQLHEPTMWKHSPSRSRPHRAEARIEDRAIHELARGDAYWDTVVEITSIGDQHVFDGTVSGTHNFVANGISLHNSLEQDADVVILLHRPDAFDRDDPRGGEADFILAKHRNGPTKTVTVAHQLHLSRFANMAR

[14] = molecular target: T3, Heat shock factor protein 1 (Mus musculus, UniProt P38532); test: decrease of HSF1-responsive luciferase luminescence – cell-based, NIH3T3, dose retest, confirmation (AID 2382); format: functional;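 also: NIH3T3 fibroblasts with HSF1-driven luciferase reporter stressed by proteasome inhibitor MG132; luminescence from HSF1-driven luciferase expression after 8 hours of MG132 stress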
T3 sequence (P38532 whole entry): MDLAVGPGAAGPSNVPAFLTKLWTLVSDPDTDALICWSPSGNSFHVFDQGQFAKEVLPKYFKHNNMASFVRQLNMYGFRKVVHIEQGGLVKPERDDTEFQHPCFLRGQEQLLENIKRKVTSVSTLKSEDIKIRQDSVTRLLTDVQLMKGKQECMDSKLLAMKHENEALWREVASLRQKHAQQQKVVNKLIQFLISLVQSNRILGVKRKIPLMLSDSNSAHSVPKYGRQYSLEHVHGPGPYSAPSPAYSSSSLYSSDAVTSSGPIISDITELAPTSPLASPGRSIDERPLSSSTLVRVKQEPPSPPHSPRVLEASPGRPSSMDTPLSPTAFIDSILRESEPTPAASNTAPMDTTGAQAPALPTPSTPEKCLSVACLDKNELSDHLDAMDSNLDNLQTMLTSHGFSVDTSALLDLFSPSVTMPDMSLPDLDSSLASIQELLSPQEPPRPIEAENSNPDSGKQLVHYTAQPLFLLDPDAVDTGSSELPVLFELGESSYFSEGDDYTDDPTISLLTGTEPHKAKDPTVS

[15] = viability of HCT116 lacking mutant beta-catenin – cell-based, human colon tumor, dose response (AID 1045); format: functional;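 also: HCT116 colon tumor cells with beta catenin knocked out; cells exposed to compound for 60 hours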
[16] = cAMP pathway inhibition in counterscreen cell line – TR-FRET cAMP detection, counter-screen for MC4R biased antagonist project, dose response (AID 602305); format: functional, cell-based;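 also: U2OS cells stimulated with forskolin near its EC80 as the cAMP inducer; potency is for inhibition of forskolin-stimulated cAMP signaling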
[17] = Luminescence-based dose response cell-based high throughput screening assay for cytotoxic compounds using the IEC-6 intestinal epithelial cell line. [Related pubchem assays: 1858 (Summary AID.), 1825 (Counterscreen.), 1907 (Confirmation screen.)]; format: functional
Jurkat = test: blockers of NF-kB activation in T cells – Jurkat, luciferase reporter, luminescence, B- and T-cell, dose response (AID 489004); format: functional, cell-based; conditions: Homo sapiens;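 also: NF-kB luciferase reporter Jurkat cells stimulated with PMA plus ionomycin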
[18] = HEK-293T viability loss, compound-treated – cell-based, uHTS hits, cytotoxicity control for B/T-cell NF-kB inhibitor project, dose response (AID 489019); format: functional;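 also: IC50 reflects cytotoxicity as loss of cell viability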
Protein RecA = molecular target: T4, Protein RecA (Mycobacterium tuberculosis, UniProt P9WHJ3); test: Fluorescence Cell-Free Homogeneous Dose Retest to Identify Inhibitors of RecA-Intein Splicing Activity. [Related pubchem assays (depositor defined):AID2097, AID2223, AID489010, AID492950]; format: functional
T4 sequence (P9WHJ3 whole entry): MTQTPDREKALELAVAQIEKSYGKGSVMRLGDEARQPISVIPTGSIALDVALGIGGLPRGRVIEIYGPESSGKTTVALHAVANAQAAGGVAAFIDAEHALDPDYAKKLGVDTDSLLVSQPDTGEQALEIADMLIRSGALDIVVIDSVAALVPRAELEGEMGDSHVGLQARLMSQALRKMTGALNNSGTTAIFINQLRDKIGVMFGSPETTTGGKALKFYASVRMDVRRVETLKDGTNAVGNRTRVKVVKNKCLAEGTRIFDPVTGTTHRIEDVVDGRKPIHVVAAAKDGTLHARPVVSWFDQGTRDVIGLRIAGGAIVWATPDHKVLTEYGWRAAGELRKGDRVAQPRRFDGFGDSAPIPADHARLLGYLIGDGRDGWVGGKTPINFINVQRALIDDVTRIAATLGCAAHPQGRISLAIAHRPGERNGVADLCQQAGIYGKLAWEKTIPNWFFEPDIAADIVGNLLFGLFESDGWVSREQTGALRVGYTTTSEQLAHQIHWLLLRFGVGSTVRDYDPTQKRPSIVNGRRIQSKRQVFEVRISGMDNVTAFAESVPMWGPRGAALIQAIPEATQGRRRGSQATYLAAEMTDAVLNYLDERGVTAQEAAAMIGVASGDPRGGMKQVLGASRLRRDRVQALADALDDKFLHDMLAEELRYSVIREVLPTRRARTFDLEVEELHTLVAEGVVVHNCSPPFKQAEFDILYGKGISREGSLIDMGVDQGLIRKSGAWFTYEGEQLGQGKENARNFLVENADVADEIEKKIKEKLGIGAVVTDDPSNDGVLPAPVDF

[19] = HIV-1 Vif–A3G interaction blockers – biochemical, TR-FRET, GST-Vif 1-94, biotin-A3G peptide, dose response retest, primary screen (AID 1117319); format: functional;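 also: TR-FRET signal of purified GST-Vif binding a biotinylated A3G peptide; inhibitors lower the FRET signal by blocking Vif and A3G binding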
Melanocortin receptor 4 = Melanocortin receptor 4 (Homo sapiens, UniProt P32245); test: inhibitors of MC4R cAMP signaling – cell-based, TR-FRET, biased antagonists, dose response (AID 602298); format: functional;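 also: antagonist potency against agonist-stimulated cAMP production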
[20] = viability of PTEN-deleted HCT116 cells – cell-based, HCT116 PTEN knockout, dose response (AID 1047); format: functional;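 also: HCT116 colon tumor cells with PTEN knocked out; cells exposed to compound for 60 hours before readout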
[21] = loss of viability in HepG2 cells – cell-based, CellTiter-Glo, cherry-picked, cytotoxicity control for Shn3 inhibitor project, dose response (AID 624134); format: functional
[22] = non-specific 3'UTR reporter inhibition in Clone20-Shn3RL – cell-based, Renilla luciferase, cherry-picked, counter-screen for Shn3 inhibitor project, dose response (AID 624133); format: functional
[23] = viability loss in Vero cells – cytotoxicity control for Vif-APOBEC3G degradation inhibitor project, dose response (AID 1117358); format: functional; conditions: Vero
[24] = reduction of Shn3 3'UTR-driven luciferase in osteoblasts – cell-based, Clone20 osteoblasts, firefly luciferase, cherry-picked, dose response (AID 624132); format: functional;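 also: firefly luciferase luminescence from reporter carrying the Shn3 3'UTR in osteoblasts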
[25] = molecular target: 5-hydroxytryptamine receptor 5A (Homo sapiens, UniProt P47898); test: Counterscreen for agonists of OPRM1-OPRD1 heterodimerization: luminescence-based cell-based high throughput dose response assay to identify agonists of 5-hydroxytryptamine (serotonin) 5A receptor (HTR5A). [Related pubchem assays (depositor defined):AID504326, AID504355, AID504692, AID504904, AID504905]; format: functional
Chain of 5-hydroxytryptamine receptor 5A (P47898 whole entry): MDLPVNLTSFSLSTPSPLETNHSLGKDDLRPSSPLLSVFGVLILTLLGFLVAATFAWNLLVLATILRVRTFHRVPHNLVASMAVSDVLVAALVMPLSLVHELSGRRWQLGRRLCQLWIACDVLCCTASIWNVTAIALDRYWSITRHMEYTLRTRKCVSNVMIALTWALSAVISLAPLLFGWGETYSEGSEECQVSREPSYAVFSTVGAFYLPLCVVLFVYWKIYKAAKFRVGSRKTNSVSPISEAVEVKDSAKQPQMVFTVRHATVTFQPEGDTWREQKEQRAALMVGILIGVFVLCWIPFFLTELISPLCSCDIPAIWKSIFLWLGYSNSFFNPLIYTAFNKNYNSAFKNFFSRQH

Escherichia coli = test: microbe, parasite or virus in culture
[26] = molecular target: Beta-2 adrenergic receptor (Homo sapiens, UniProt P07550); test: ADRB2 activation measured by internalization – cell-based, FAP fluorogen, flow cytometry, cherry pick 1, dose response (AID 588763); format: functional
A-375 [27] = test: MITF: Counter assay: A375 proliferation Measured in Cell-Based System Using Plate Reader - 2084-03_Inhibitor_Dose_DryPowder_Activity. [Related pubchem assays (depositor defined):AID488944]; format: functional; conditions: Homo sapiens
A-375 [28] = test: proliferation inhibition in MITF-low A375 cells – cell-based, cherry-pick samples, set 2, counter-screen for MITF modulator project, dose response (AID 540335); format: functional; conditions: Homo sapiens

CCCCc1ccc(-n2nc3cc(Cl)c(C(=O)NC(C)(C)C)cc3n2)cc1
AC50 (H4 [1]): < 0.02 µM (active) | AC50 (H4 [2]): 0.032 µM (active)

C[N+]1(C)C2CCC1CC(OC(=O)c1c[nH]c3ccccc13)C2 (configuration not stated)
AC50 [3]: 25.1 µM (inconclusive)

O=c1c(Cl)c(Cl)cnn1Cc1nnc(-c2ccccc2Br)o1
IC50 [4]: 7.65 µM (active) | EC50 [5]: 2.03 µM (active) | EC50 (Mucolipin-3): 3.15 µM (active) | EC50 (Ion channel NompC): 11.3 µM (not active) | IC50 (CHO): 1.81 µM (active) | EC50 [6]: 2.51 µM (active) | AC50 (Paired box protein Pax-8): 7.63 µM (active)

COc1cc2c(ccc3cc(OC)c(OC)c(O)c32)cc1O
IC50 [7]: 1.95 µM (active) | IC50 (SUMO-activating enzyme [8]): 2.89 µM (active) | IC50 [9]: 35.2 µM (inactive) | AC50 [10]: 0.406 µM (active) | AC50 [11]: 2.19 µM (active) | IC50 (SUMO-activating enzyme [12]): 13.9 µM (active) | IC50 (Large T antigen): 9.72 µM (active)

C#CC(=O)N(c1cc(OC)ccc1OC)C(C(=O)NC1CCCC1)c1cccs1 (configuration not stated)
AC50 [13]: 1.94 µM (active) | EC50 [14]: 0.692 µM (active) | EC50 [15]: 3.99 µM (active) | IC50 [16]: > 64.6 µM (inactive) | IC50 [17]: 0.096 µM (active) | IC50 (Jurkat): 0.23 µM (active) | IC50 [18]: 55.6 µM (inactive) | EC50 (Protein RecA): 2.46 µM (active) | IC50 [19]: > 100 µM (active) | IC50 (Melanocortin receptor 4): > 64.6 µM (inactive) | EC50 [20]: 4.13 µM (active) | AC50 [21]: 1.25 µM (active) | AC50 [22]: 0.563 µM (active) | CC50 [23]: 0.087 µM (active) | AC50 [24]: 4.57 µM (active)

C=CCN1C[C@@H](C)N(C(c2ccc(C(=O)N(CC)CC)cc2)c2cccc(OC)c2)C[C@@H]1C (some centres not stated)
EC50 [25]: > 92.5 µM (inactive)

CCOC(=O)c1ccc(NC(=O)c2cn(CCC#N)nc2-c2ccc3c(c2)OCCO3)cc1
AC50 (Escherichia coli): 30.3 µM (active)

CN(Cc1cccs1)c1nc(-c2cccnc2)nc2ccccc12
EC50 [26]: 1.26 µM (active)

COc1ccc(CCC(=O)N2CCc3ccccc32)cc1
AC50 (A-375 [27]): > 35 µM (active) | AC50 (A-375 [28]): > 35 µM (active)

From ChEMBL document CHEMBL1201862, “PubChem BioAssay data set” (2004)
